ChEMBL document CHEMBL3885861, “Open TG-GATES”

Species: Rattus norvegicus
Test: Open TG-GATES - Regimen: Daily Repeat
Assay type: toxicity, organism-based, Sprague-Dawley
Set-up: regimen Daily Repeat, gender Male, age 6 weeks
Settings: in vivo, po, route gavage; for Bas / Eos / Fbg / Hb / Ht / Lym / MCHC / MCV / Mono / PT / Plat / RBC / Ret / WBC / Neu: tissue Blood
[1] = 0 mg/kg, 72 h, dose level Control, time 3 day
[2] = 0 mg/kg, 72 h, tissue Plasma, dose level Control, time 3 day
[3] = 0 mg/kg, […], dose level Control, time 7 day
[4] = 0 mg/kg, […], dose level Control, time 14 day
[5] = 0 mg/kg, […], dose level Control, time 28 day
[6] = 0 mg/kg, […], tissue Plasma, dose level Control, time 7 day
[7] = 0 mg/kg, […], tissue Plasma, dose level Control, time 14 day
[8] = 0 mg/kg, […], tissue Plasma, dose level Control, time 28 day
[9] = 100 mg/kg, 72 h, dose level Low, time 3 day

O=C(O)c1cccnc1 [NIACIN]
TERMINAL_BW [1]: 241.1 g
Bas [1]: 0%
Eos [1]: 0.8%
Fbg [1]: 321 mg/dL
Hb [1]: 12.8 g/dL
Ht [1]: 38.2%
Lym [1]: 81.2%
MCHC [1]: 33.5%
MCV [1]: 62.4 fL
Mono [1]: 3%
PT [1]: 15.9 s
Plat [1]: 125.7 x10_4/uL
RBC [1]: 612.4 x10_4/ul
Ret [1]: 7.8%
WBC [1]: 116.2 x10_2/uL
ALP [2]: 1807.6 IU/L
ALT [2]: 48 IU/L
AST [2]: 73.2 IU/L
CRE [2]: 0.2 mg/dL
Ca [2]: 10.7 mg/dL
Cl [2]: 104.2 meq/L
DBIL [2]: 0 mg/dL
GLC [2]: 201.8 mg/dL
IP [2]: 7.7 mg/dL
K [2]: 4.4 meq/L
LDH [2]: 161.4 IU/L
Na [2]: 139.2 meq/L
PL [2]: 151.6 mg/dL
RALB [2]: 3.1 g/dL
TBIL [2]: 0 mg/dL
TC [2]: 80 mg/dL
TG [2]: 92.8 mg/dL
TP [2]: 5.6 g/dL
gamma-GTP [2]: 1.4 IU/L
TERMINAL_BW [3]: 268.8 g
TERMINAL_BW [4]: 327.5 g
TERMINAL_BW [5]: 405.7 g
Bas [3]: 0%
Eos [3]: 1%
Fbg [3]: 334.8 mg/dL
Ht [3]: 41.3%
Lym [3]: 78.2%
MCHC [3]: 34.3%
Mono [3]: 3.2%
Neu [3]: 16.8%
PT [3]: 16.5 s
Plat [3]: 116.1 x10_4/uL
RBC [3]: 681 x10_4/ul
Ret [3]: 5.5%
WBC [3]: 120.8 x10_2/uL
Bas [4]: 0%
Eos [4]: 1%
Fbg [4]: 329 mg/dL
Ht [4]: 41.5%
Lym [4]: 77.8%
MCHC [4]: 34.2%
MCV [4]: 60.4 fL
Mono [4]: 2.6%
Neu [4]: 17%
PT [4]: 15.9 s
Plat [4]: 115.7 x10_4/uL
RBC [4]: 688.8 x10_4/ul
Ret [4]: 5.1%
WBC [4]: 127.5 x10_2/uL
Bas [5]: 0%
Eos [5]: 1.2%
Fbg [5]: 331.4 mg/dL
Hb [5]: 15 g/dL
Ht [5]: 42.7%
Lym [5]: 80.6%
MCHC [5]: 35.2%
MCV [5]: 56.6 fL
Mono [5]: 2%
Neu [5]: 15%
PT [5]: 16.5 s
Plat [5]: 89.6 x10_4/uL
RBC [5]: 754.4 x10_4/ul
Ret [5]: 3%
WBC [5]: 119.1 x10_2/uL
ALP [6]: 1431.4 IU/L
ALT [6]: 37.2 IU/L
AST [6]: 67 IU/L
CRE [6]: 0.1 mg/dL
Ca [6]: 10.8 mg/dL
Cl [6]: 105.2 meq/L
DBIL [6]: 0 mg/dL
GLC [6]: 190.4 mg/dL
IP [6]: 7.4 mg/dL
K [6]: 4.2 meq/L
LDH [6]: 155.6 IU/L
Na [6]: 139.8 meq/L
PL [6]: 160.4 mg/dL
RALB [6]: 3 g/dL
TBIL [6]: 0 mg/dL
TC [6]: 78.6 mg/dL
TG [6]: 130 mg/dL
TP [6]: 5.7 g/dL
gamma-GTP [6]: 1.6 IU/L
ALP [7]: 1595.6 IU/L
AST [7]: 68 IU/L
CRE [7]: 0.2 mg/dL
Ca [7]: 10.6 mg/dL
Cl [7]: 104.2 meq/L
DBIL [7]: 0 mg/dL
GLC [7]: 198.2 mg/dL
IP [7]: 7.1 mg/dL
K [7]: 4 meq/L
LDH [7]: 163.6 IU/L
Na [7]: 138 meq/L
PL [7]: 156 mg/dL
RALB [7]: 3.1 g/dL
TBIL [7]: 0.006 mg/dL
TC [7]: 75.6 mg/dL
TG [7]: 144.2 mg/dL
TP [7]: 5.9 g/dL
gamma-GTP [7]: 1 IU/L
ALP [8]: 1086.6 IU/L
ALT [8]: 37.4 IU/L
AST [8]: 63.8 IU/L
BUN [8]: 17.8 mg/dL
CRE [8]: 0.2 mg/dL
Ca [8]: 10.1 mg/dL
Cl [8]: 106.4 meq/L
DBIL [8]: 0 mg/dL
GLC [8]: 214.4 mg/dL
IP [8]: 6.9 mg/dL
K [8]: 4.2 meq/L
LDH [8]: 150.6 IU/L
Na [8]: 142.8 meq/L
PL [8]: 149.4 mg/dL
RALB [8]: 3.1 g/dL
TBIL [8]: 0.012 mg/dL
TC [8]: 76.6 mg/dL
TG [8]: 121 mg/dL
TP [8]: 5.9 g/dL
gamma-GTP [8]: 2.4 IU/L
TERMINAL_BW [9]: 239.7 g
Bas [9]: 0%
Eos [9]: 1.2%
